Measurements as given in ChEMBL document CHEMBL6115010, “Targeting glioma with heteroaromatic alkaloids: A review of potential therapeutics” (Bioorg Med Chem, 2025).

Key:
[1] = test system: U-251; test: Antiproliferative activity against human U-251MG cells assessed as reduction in cell growth measured at 10 uM for 48 hrs by MTT assay relative to control; type: functional; set-up: scale not given: the % may be the effect or the level left
[2] = test system: C6; test: Antitumor activity against rat C6 cells implanted in Wistar rat assessed as increase in life span at 250 mg/kg relative to control; type: functional
[3] = Cytotoxicity against human U-87 MG cells harboring EGFR mutation assessed as reduction in cell viability incubated for 72 hrs by resazurin dye based assay; type: functional, U-87MG ATCC
[4] = test system: 9L; test: Cytotoxicity against rat 9L cells assessed as reduction in cell viability incubated for 24 hrs by tryphan-blue dye based assay; type: functional
[5] = Cytotoxicity against human GBM cells harboring EGFR mutation assessed as reduction in cell viability incubated for 72 hrs by resazurin dye based assay; type: functional
[6] = test system: CCRF-CEM; test: Cytotoxicity against human CCRF-CEM cells assessed as reduction in cell viability incubated for 72 hrs by resazurin dye based analysis; type: functional
[7] = Cytotoxicity against rat 9L/ACNU cells assessed as reduction in cell viability incubated for 24 hrs by tryphan-blue dye based assay; type: functional
[8] = Antitumor activity against rat C6/ACNUcells implanted in Wistar rat assessed as increase in life span at 250 mg/kg relative to control; type: functional, C6/ACNU
[9] = test system: ADR5000 cell line; test: Cytotoxicity against human CEM/ADR5000 cells assessed as reduction in cell viability incubated for 72 hrs by resazurin dye based analysis; type: functional; conditions: ADR5000, 72 h
[10] = test system: C6; test: Antitumor activity against rat C6 cells implanted in athymic nude mouse assessed as reduction in tumor volume at 300 mg/kg, IC administered once daily for 21 days relative to control; type: functional; set-up: scale not given: the % may be the effect or the level left; conditions: time 21 day
[11] = test system: U-87 MG; test: Antiproliferative activity against human U-87 MG cells assessed as reduction in inhibition of cell growth incubated for 72 hrs by MTT assay; type: functional, cell-based, U-87MG ATCC
[12] = test system: HUVEC; test: Antivascular activity against HUVEC cells assessed as inhibition of capillary tube formation at 100 incubated for 6 hrs by microscopy based analysis relative to control; type: functional, Homo sapiens; set-up: scale not given: the % may be the effect or the level left
[13] = test system: C6; test: Antitumor activity against rat C6 cells implanted in athymic nude mouse assessed as reduction in tumor volume at 300 mg/kg, sc administered once daily for 21 days relative to control; type: functional; set-up: scale not given: the % may be the effect or the level left; conditions: time 21 day
[14] = Downregulation of HIF-1alpha expression in human U-87 MG cells at 150 uM relative to control; type: functional, U-87MG ATCC
[15] = test system: HUVEC; test: Antivascular activity against HUVEC cells assessed as inhibition of capillary tube formation at 150 incubated for 6 hrs by microscopy based analysis relative to control; type: functional, Homo sapiens; set-up: scale not given: the % may be the effect or the level left
[16] = test system: T98G; test: Induction of apoptosis in human T98G cells assessed as fold increase in apoptosis at 10 uM under radiation measured after 24 hrs by annexin V and PI staining based flow cytometry analysis (Rvb=3.7); type: functional
[17] = Antiproliferative activity against human TMZ-sensitive LN-229 cells assessed as reduction in cell growth incubated for 48 hrs by MTT assay; type: functional, cell-based, TMZ-sensitive LN-229 cell; conditions: LN-229, 48 h
[18] = Downregulation of HIF-1alpha expression in human T98G cells at 150 uM relative to control; type: functional
[19] = Antiproliferative activity against human TMZ-resistant U-251MG cell assessed as reduction in cell growth incubated for 48 hrs by MTT assay; type: functional, cell-based; conditions: U-251, 48 h
[20] = Antitumor activity against mouse GL261 cells implanted in C57BL/6 mouse model assessed as fold reduction in cell proliferation under radiation at 150 mg/kg via oral gavage (reference value: 3.3 fold); type: functional
[21] = Antiproliferative activity against human TMZ-resistant LN-229 cells assessed as reduction in cell growth incubated for 48 hrs by MTT assay; type: functional, cell-based, TMZ-resistant LN-229 cell; conditions: LN-229, 48 h
[22] = test system: T98G; test: Antiproliferative activity against human T98G cells assessed as reduction in inhibition of cell growth incubated for 72 hrs by MTT assay; type: functional, cell-based
[23] = Antitumor activity against mouse GL261 cells implanted in C57BL/6 mouse model assessed as increase in tumor growth delay under radiation at 150 mg/kg via oral gavage (reference value: 12.7+/-2.8 days); type: functional
[24] = test system: C6; test: Antiproliferative activity against rat C6 cells assessed as reduction in cell growth measured for 96 hrs by WST-1 assay; type: functional, cell-based; conditions: C6, 96 h
[25] = Antiproliferative activity against human TMZ-resistant A-172 cells assessed as reduction in cell growth incubated for 48 hrs by MTT assay; type: functional, cell-based; conditions: TMZ-resistant A-172 cell
[26] = Antiproliferative activity against human TMZ-sensitive A-172 cells assessed as reduction in cell growth incubated for 48 hrs by MTT assay; type: functional, cell-based, TMZ-sensitive A-172 cell; conditions: A 172, 48 h
[27] = Antitumor activity against mouse GL261 cells implanted in C57BL/6 mouse model assessed as increase in tumor growth delay without radiation at 150 mg/kg via oral gavage (reference value: 12.7+/-2.8 days); type: functional
[28] = test system: HUVEC; test: Antivascular activity against HUVEC cells assessed as inhibition of capillary tube formation at 50 incubated for 6 hrs by microscopy based analysis relative to control; type: functional, Homo sapiens; set-up: scale not given: the % may be the effect or the level left
[29] = test system: C6; test: Anticancer activity against rat C6 cells assessed as reduction in cell growth at 10 ug/ml incubated for 24 hrs by MTT assay relative to control; type: functional
[30] = test system: U-118-MG; test: Antiproliferative activity against human U-118-MG cells assessed as reduction in inhibition of cell growth incubated for 72 hrs by MTT assay; type: functional, cell-based
[31] = test system: LN-229; test: Antiproliferative activity against human LN-229 cells assessed as reduction in inhibition of cell growth incubated for 72 hrs by MTT assay; type: functional, cell-based; conditions: LN-229, 72 h
[32] = Antiproliferative activity against human TMZ-sensitive U-251MG cells assessed as reduction in cell growth incubated for 48 hrs by MTT assay; type: functional, cell-based, TMZ-sensitive U-251MG cell; conditions: U-251, 48 h
[33] = test system: U-251; test: Antiproliferative activity against human U-251MG cells assessed as reduction in cell growth measured for 48 hrs by MTT assay; type: functional, cell-based; conditions: U-251, 48 h

Work on Clc1ccccc1C(c1ccccc1)(c1ccccc1)n1ccnc1 [CLOTRIMAZOLE] yielded an Activity [1] of 70%.
For COC(=O)[C@H]1[C@H]2C[C@@H]3c4[nH]c5cc(OC)ccc5c4CCN3C[C@H]2C[C@@H](OC(=O)c2cc(OC)c(OC)c(OC)c2)[C@@H]1OC [RESERPINE], the Activity [2] was 143%, the IC50 [3] was 9.15 µM and the IC50 [4] was 1 µM. It also gave an IC50 [5] of 88 µM, an IC50 [6] of 14.5 µM and an IC50 [7] of 2 µM. For the same molecule, the Activity [8] was 142% and the IC50 [9] was 13.2 µM.
For COc1ccc2c(c1OC)C(=O)O[C@@H]2[C@H]1c2c(cc3c(c2OC)OCO3)CCN1C [NOSCAPINE], the Activity [10] was 78%, the IC50 [11] was 131 µM and the Activity [12] was 40%. The Activity [13] was 60%, the Activity [14] was 60% and the Activity [15] was 40%. For the same molecule, the “fold change (FC)” value [16] was 6.4, the IC50 [17] was 70 µM and the Activity [18] was 90%. The IC50 [19] was 30 µM, the “fold change (FC)” value [20] was 5.6 and the IC50 [21] was 75 µM. It also gave an IC50 [22] of 97 µM, a Time [23] of 18 days and an IC50 [24] of 250 µM. For the same molecule, the IC50 [25] was 60 µM, the IC50 [26] was 20 µM and the Time [27] was 8 days. The Activity [28] was 30%, the inhibition at 10 µg/mL [29] was 49% and the IC50 [30] was 91 µM. The IC50 [31] was 86 µM and the IC50 [32] was 40 µM.
CC(C)(O)[C@H]1O[C@H]2CC[C@@]3(C)[C@@](O)(CC[C@H]4Cc5c([nH]c6ccccc56)[C@@]43C)C2=CC1=O [PAXILLINE] showed an IC50 [33] of about 0.013 µM.
